Target: T1, crosslinked smooth muscle actomyosin (chicken gizzard smooth muscle myosin subfragment-1 crosslinked to cardiac or skeletal actin) (Gallus gallus, UniProt P10587)
T1 construct: chicken gizzard smooth muscle myosin subfragment-1; from tissue; host or cells: chicken gizzard
Assay: Lead optimization pyruvate kinase/horseradish peroxidase/pyruvate oxidase-coupled ATPase assay (compound dose response)
Type: biochemical
Conditions: read-out: IC50 Arithmetic Mean
Outline: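 IC50 is the midpoint of a 4-parameter dose–response fit of Amplex Red fluorescence (480/615 nm). Buffer was 12 mM potassium PIPES pH 7.00 at 22 °C with 100 mM KCl, 2 mM MgCl2, 0.15 mM ATP and 2 mM phosphate, with PK/pyruvate oxidase/HRP coupling. Enzyme: smooth muscle myosin S1 crosslinked to cardiac or skeletal actin, dosed empirically by activity.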

Molecule	IC50
CCc1ccc(CC(=O)NCC2(C(=O)NCc3ccccc3Cl)CCN(C(=O)CN)CC2)cc1 [N-[(1-(2-aminoacetyl)-4-{N-[(2-chlorophenyl)methyl]carbamoyl}(4-piperidyl))methyl]-2-(4-ethylphenyl)acetamide]	14900 nM
CCc1ccc(NC(=O)OCC(C)(CCNC(=O)CNC(=O)OC(C)(C)C)C(=O)NCc2ccccc2Cl)cc1 (stereo not drawn) [4-{2-[(tert-butoxy)carbonylamino]acetylamino}-N-[(2-chlorophenyl)methyl]-2-{[N-(4-ethylphenyl)carbamoyloxy]methyl}-2-methylbutanamide]	1300 nM
(tert-butoxy)-N-[2-(3-{N-[(2-chlorophenyl)methyl]carbamoyl}-3-{[N-(4-ethylphenyl)carbamoyloxy]methyl}piperidyl)-2-oxoethyl]carboxamide	1430 nM
CCc1ccc(NC(=O)OCC2(C(=O)NCc3ccccc3Cl)CCN(C(=O)[C@@H](CO)NC(=O)OC(C)(C)C)CC2)cc1 [N-[(1R)-2-(4-{N-[(2-chlorophenyl)methyl]carbamoyl}-4-{[N-(4-ethylphenyl)carbamoyloxy]methyl}piperidyl)-1-(hydroxymethyl)-2-oxoethyl](tert-butoxy)carboxamide]	3500 nM
CC(O)c1ccc(NC(=O)OCC2(C(=O)NCc3ccccc3Cl)CCOCC2)cc1 (stereo not drawn) [N-[(2-chlorophenyl)methyl][4-({N-[4-(hydroxyethyl)phenyl]carbamoyloxy}methyl)(2H-3,4,5,6-tetrahydropyran-4-yl)]carboxamide]	5230 nM
CC(C)(C)OC(=O)NCC(=O)N1CCC(COC(=O)Nc2ccc(C(F)(F)F)cc2)(C(=O)NCc2cccc(Cl)c2F)CC1 [[(1-{2-[(tert-butoxy)carbonylamino]acetyl}-4-{N-[(3-chloro-2-fluorophenyl)methyl]carbamoyl}(4-piperidyl))methoxy]-N-[4-(trifluoromethyl)phenyl]carboxamide]	6560 nM
O=C(Nc1ccc(C(F)(F)F)cc1)OCC1(C(=O)NCc2ccccc2Cl)CCNCC1 [N-[(2-chlorophenyl)methyl][4-({N-[4-(trifluoromethyl)phenyl]carbamoyloxy}methyl)(4-piperidyl)]carboxamide]	5940 nM
Cc1ccc(NC(=O)OCC2(C(=O)NCc3ccccc3Cl)CCOCC2)cc1F [N-[(2-chlorophenyl)methyl](4-{[N-(3-fluoro-4-methylphenyl)carbamoyloxy]methyl}(2H-3,4,5,6-tetrahydropyran-4-yl))carboxamide]	2210 nM
CCc1ccc(NC(=O)OCC2(C(=O)NCc3ccccc3)CCN(C(=O)CN)CC2)cc1 [(1-(2-aminoacetyl)-4-{[N-(4-ethylphenyl)carbamoyloxy]methyl}(4-piperidyl))-N-benzylcarboxamide]	8110 nM
NCC(=O)N1CCC(COC(=O)Nc2ccc(F)cc2)(C(=O)NCc2ccccc2Cl)CC1 [(1-(2-aminoacetyl)-4-{[N-(4-fluorophenyl)carbamoyloxy]methyl}(4-piperidyl))-N-[(2-chlorophenyl)methyl]carboxamide]	14600 nM
O=C(Nc1ccc(Cl)cc1)OCC1(C(=O)NCc2ccccc2Cl)CCOCC1 [(4-{[N-(4-chlorophenyl)carbamoyloxy]methyl}(2H-3,4,5,6-tetrahydropyran-4-yl))-N-[(2-chlorophenyl)methyl]carboxamide]	2780 nM
Cc1nc(-c2ccc(NC(=O)OCC3(C(=O)NCc4ccccc4Cl)CCOCC3)cc2)cs1 [N-[(2-chlorophenyl)methyl][4-({N-[4-(2-methyl(1,3-thiazol-4-yl))phenyl]carbamoyloxy}methyl)(2H-3,4,5,6-tetrahydropyran-4-yl)]carboxamide]	3920 nM
CCc1ccc(NC(=O)OCC2(CC(=O)NCc3ccccc3Cl)CCN(C(=O)CN)CC2)cc1 [2-(1-(2-aminoacetyl)-4-{[N-(4-ethylphenyl)carbamoyloxy]methyl}(4-piperidyl))-N-[(2-chlorophenyl)methyl]acetamide]	3740 nM
CC(C)(C)OC(=O)NCC(=O)N1CCC(COC(=O)Nc2ccc(C(F)(F)F)cc2)(C(=O)NCc2cccc(Cl)c2Cl)CC1 [[(4-{N-[(2,3-dichlorophenyl)methyl]carbamoyl}-1-{2-[(tert-butoxy)carbonylamino]acetyl}(4-piperidyl))methoxy]-N-[4-(trifluoromethyl)phenyl]carboxamide]	3720 nM
COC(=O)c1ccc(NC(=O)OCC2(C(=O)NCc3ccccc3Cl)CCOCC2)cc1 [methyl 4-{[(4-{N-[(2-chlorophenyl)methyl]carbamoyl}-2H-3,4,5,6-tetrahydropyran-4-yl)methoxy]carbonylamino}benzoate]	3550 nM

Continued by falling IC50, values first:

IC50	Molecule
1680 nM	CCc1ccc(NC(=O)OCC2(C(=O)NCc3ccccc3Cl)CCN(C(=O)C3COCCN3C(=O)OC(C)(C)C)CC2)cc1 (stereo not drawn) [tert-butyl 3-[(4-{N-[(2-chlorophenyl)methyl]carbamoyl}-4-{[N-(4-ethylphenyl)carbamoyloxy]methyl}piperidyl)carbonyl]morpholine-4-carboxylate]
1670 nM	CCc1ccc(NC(=O)OCCCN(C)C(=O)NCc2ccccc2Cl)cc1 [{[(2-chlorophenyl)methyl]amino}-N-{3-[N-(4-ethylphenyl)carbamoyloxy]propyl}-N-methylcarboxamide]
1530 nM	CCc1ccc(NC(=O)OCC2(C(=O)NCc3ccccc3Cl)CCN(C(=O)C(N)CC(=O)O)CC2)cc1 (stereo not drawn) [3-amino-4-(4-{N-[(2-chlorophenyl)methyl]carbamoyl}-4-{[N-(4-ethylphenyl)carbamoyloxy]methyl}piperidyl)-4-oxobutanoic acid]
1520 nM	CCc1ccc(NC(=O)OCC2(C(=O)NCc3ccccc3Cl)CCN(CC(=O)OC)CC2)cc1 [methyl 2-(4-{N-[(2-chlorophenyl)methyl]carbamoyl}-4-{[N-(4-ethylphenyl)carbamoyloxy]methyl}piperidyl)acetate]
1440 nM	CCc1ccc(NC(=O)OC[C@@H]2C[C@@H](N)CN2C(=O)NCc2ccccc2Cl)cc1 [((5S,3R)-3-amino-5-{[N-(4-ethylphenyl)carbamoyloxy]methyl}pyrrolidinyl)-N-[(2-chlorophenyl)methyl]carboxamide]
1210 nM	CCc1ccc(NC(=O)OCCN(C)C(=O)CCc2ccccc2C(F)(F)F)cc1 [N-{2-[N-(4-ethylphenyl)carbamoyloxy]ethyl}-N-methyl-3-[2-(trifluoromethyl)phenyl]propanamide]
1140 nM	O=C(Nc1ccc(C(F)(F)F)cc1)OCC1(C(=O)NCc2ccccc2Cl)CCOCC1 [N-[(2-chlorophenyl)methyl][4-({N-[4-(trifluoromethyl)phenyl]carbamoyloxy}methyl)(2H-3,4,5,6-tetrahydropyran-4-yl)]carboxamide]
1100 nM	CCc1ccc(NC(=O)OCC2(C(=O)NCc3ccc(F)cc3)CCN(C(=O)CN)CC2)cc1 [[(1-(2-aminoacetyl)-4-{N-[(4-fluorophenyl)methyl]carbamoyl}(4-piperidyl))methoxy]-N-(4-ethylphenyl)carboxamide]
729 nM	CCc1ccc(NC(=O)OCC2(C(=O)NCc3cccc(Cl)c3)CCN(C(=O)CN)CC2)cc1 [[(1-(2-aminoacetyl)-4-{N-[(3-chlorophenyl)methyl]carbamoyl}(4-piperidyl))methoxy]-N-(4-ethylphenyl)carboxamide]
540 nM	CCc1ccc(NC(=O)OCC2(C(=O)NCc3ccccc3Cl)CCN(C(=O)C(N)C(C)C)CC2)cc1 (stereo not drawn) [(1-(2-amino-3-methylbutanoyl)-4-{[N-(4-ethylphenyl)carbamoyloxy]methyl}(4-piperidyl))-N-[(2-chlorophenyl)methyl]carboxamide]
394 nM	CCc1ccc(NC(=O)OCC2(C(=O)NCc3ccccc3Cl)CCN(C(=O)c3ncc[nH]3)CC2)cc1 [N-[(2-chlorophenyl)methyl](4-{[N-(4-ethylphenyl)carbamoyloxy]methyl}-1-(imidazol-2-ylcarbonyl)(4-piperidyl))carboxamide]
238 nM	CCc1ccc(NC(=O)OCC2(C(=O)NCc3ccccc3Cl)CCCCC2)cc1 [N-[(2-chlorophenyl)methyl]({[N-(4-ethylphenyl)carbamoyloxy]methyl}cyclohexyl)carboxamide]
197 nM	CCc1ccc(NC(=O)OCC2(C(=O)NCc3ccc(Cl)cc3Cl)CCN(C(=O)CN)CC2)cc1 [[(1-(2-aminoacetyl)-4-{N-[(2,4-dichlorophenyl)methyl]carbamoyl}(4-piperidyl))methoxy]-N-(4-ethylphenyl)carboxamide]
197 nM	CCc1ccc(NC(=O)OCC2(C(=O)NCc3ccccc3Cl)CCOCC2)cc1 [N-[(2-chlorophenyl)methyl](4-{[N-(4-ethylphenyl)carbamoyloxy]methyl}(2H-3,4,5,6-tetrahydropyran-4-yl))carboxamide]
179 nM	Cc1c(Cl)cccc1CNC(=O)C1(COC(=O)Nc2ccc(C(F)(F)F)cc2)CCN(C(=O)CN)CC1 [[(1-(2-aminoacetyl)-4-{N-[(3-chloro-2-methylphenyl)methyl]carbamoyl}(4-piperidyl))methoxy]-N-[4-(trifluoromethyl)phenyl]carboxamide]
175 nM	CCc1ccc(NC(=O)OCC2(C(=O)NCc3ccccc3Cl)CCN(C(=O)CN)CC2)cc1 [(1-(2-aminoacetyl)-4-{[N-(4-ethylphenyl)carbamoyloxy]methyl}(4-piperidyl))-N-[(2-chlorophenyl)methyl]carboxamide]
148 nM	CCc1ccc(NC(=O)OC[C@H](C)N(C)C(=O)NCc2ccccc2Cl)cc1 [N-{(1S)-2-[N-(4-ethylphenyl)carbamoyloxy]-isopropyl}{[(2-chlorophenyl)methyl]amino}-N-methylcarboxamide]
81 nM	CCc1ccc(NC(=O)OCC2(C(=O)NCc3cccc(F)c3C)CCN(C(=O)CN)CC2)cc1 [[(1-(2-aminoacetyl)-4-{N-[(3-fluoro-2-methylphenyl)methyl]carbamoyl}(4-piperidyl))methoxy]-N-(4-ethylphenyl)carboxamide]
